16 compounds from US7638512B2, “Phenylaminopropanol derivatives and methods of their use” (Wyeth, priority 2004, dated 2009) can be followed below.

For the assay, the target named is T1, human hNET (Homo sapiens, UniProt P23975).
T1 construct: expressed in transfected cells
Put plainly: Norepinephrine (NE) uptake assay. The note with it: 1 μM test compound; MDCK-Net6 cells stably transfected with human hNET; [3H]NE uptake. Format: cell-based. On the procedure: MDCK-Net6 cells, stably transfected with human hNET (Pacholczyk, T., R. D. Blakely, and S. G. Amara, Nature, 1991, 350(6316): p. 350-4) were cultured in growth medium containing high glucose DMEM (Gibco, Cat. No. 11995), 10% FBS (dialyzed, heat-inactivated, US Bio-Technologies, Lot FBD1129HI) and 500 µg/ml G418 (Gibco, Cat. No. 10131). Cells were plated at 300,000/T75 flask and cells were split twice weekly. The JAR cell line (human placental choriocarcinoma) was purchased from ATCC (Cat. No. HTB-144). The cells were cultured in growth medium containing RPMI 1640 (Gibco, Cat. No. 72400), 10% FBS (Irvine, Cat. No. 3000), 1% sodium pyruvate (Gibco, Cat. No. 1136) and 0.25% glucose. Cells were plated at 250,000 cells/T75 flask and split twice weekly. For all assays, cells were plated in Wallac 96-well sterile plates (PerkinElmer, Cat. No. 3983498).
On day 1, cells were plated at 3,000 cells/well in growth medium and maintained in a cell incubator (37° C., 5% CO2). On day 2, growth medium was replaced with 200 μl of assay buffer (25 mM HEPES; 120 mM NaCl; 5 mM KCl; 2.5 mM CaCl2; 1.2 mM MgSO4; 2 mg/ml glucose (pH 7.4, 37° C.)) containing 0.2 mg/ml ascorbic acid and 10 μM pargyline. Plates containing cells with 200 μl of assay buffer were equilibrated for 10 minutes at 37° C. prior to addition of compounds. A stock solution of desipramine was prepared in DMSO (10 mM) and delivered to triplicate wells containing cells for a final test concentration of 1 μM. Data from these wells were used to define non-specific NE uptake (minimum NE uptake). Test compounds were prepared in DMSO (10 mM) and diluted in assay buffer according to test range (1 to 10,000 nM). Twenty-five microliters of assay buffer (maximum NE uptake) or test compound were added directly to triplicate wells containing cells in 200 μl of assay buffer. The cells in assay buffer with test compounds were incubated for 20 minutes at 37° C. To initiate the NE uptake, [^3H]NE diluted in assay buffer (120 nM final assay concentration) was delivered in 25 μl aliquots to each well and the plates were incubated for 5 minutes (37° C.). The reaction was terminated by decanting the supernatant from the plate. The plates containing cells were washed twice with 200 μl assay buffer (37° C.) to remove free radioligand. The plates were then inverted, left to dry for 2 minutes, then reinverted and air-dried for an additional 10 minutes. The cells were lysed in 25 μl of 0.25 N NaOH solution (4° C.), placed on a shake table and vigorously shaken for 5 minutes. After cell lysis, 75 μl of scintillation cocktail was added to each well and the plates were sealed with film tape. The plates were returned to the shake table and vigorously shaken for a minimum of 10 minutes to ensure adequate partitioning of organic and aqueous solutions. The plates were counted in a Wallac Microbeta counter (PerkinElmer) to collect the raw cpm data.
For each experiment, a data stream of cpm values collected from the Wallac Microbeta counter was downloaded to a Microsoft Excel statistical application program. Calculations of EC50 values were made using the transformed-both-sides logistic dose response program written by Wyeth Biometrics Department. The statistical program uses mean cpm values from wells representing maximum binding or uptake (assay buffer) and mean cpm values from wells representing minimum binding or uptake ((1 μM desipramine (hNET) or 1 μM paroxetine (hSERT)). Estimation of the EC50 value was completed on a log scale and the line was fit between the maximum and minimum binding or uptake values. All graphic data representation was generated by normalizing each data point to a mean percent based on the maximum and minimum binding or uptake values. The EC50 values reported from multiple experiments were calculated by pooling the raw data from each experiment and analyzing the pooled data as one experiment.

Structures can show the parent of a compound that is named as a salt.

T1 sequence (P23975 whole entry): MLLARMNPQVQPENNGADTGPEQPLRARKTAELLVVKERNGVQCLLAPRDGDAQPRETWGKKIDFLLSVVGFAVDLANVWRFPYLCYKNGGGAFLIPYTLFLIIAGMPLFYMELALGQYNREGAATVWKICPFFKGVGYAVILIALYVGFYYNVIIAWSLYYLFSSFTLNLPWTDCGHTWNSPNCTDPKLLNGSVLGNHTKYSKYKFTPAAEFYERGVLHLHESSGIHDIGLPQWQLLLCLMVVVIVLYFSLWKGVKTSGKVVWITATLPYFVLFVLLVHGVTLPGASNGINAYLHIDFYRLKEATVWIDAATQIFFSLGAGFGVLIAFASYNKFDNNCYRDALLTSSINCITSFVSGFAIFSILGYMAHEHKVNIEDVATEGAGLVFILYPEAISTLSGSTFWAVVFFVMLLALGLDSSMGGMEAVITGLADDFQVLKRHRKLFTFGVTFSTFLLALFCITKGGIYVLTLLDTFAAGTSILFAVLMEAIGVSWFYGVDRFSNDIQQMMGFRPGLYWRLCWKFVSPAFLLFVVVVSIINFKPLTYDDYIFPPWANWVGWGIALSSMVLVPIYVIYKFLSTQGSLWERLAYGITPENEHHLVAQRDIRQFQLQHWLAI

For orientation: inhibition means how much of the control response was suppressed. High values mean strong suppression, low ones little suppression. On to `CNC[C@@H](O)[C@H](c1ccccc1)N1CCOc2ccccc21` (racemic) [Example 2, (1RS,2SR)-1-(2,3-dihydro-4H-1,4-benzoxazin-4-yl)-3-(methylamino)-1-phenylpropan-2-ol dihydrochloride], for which the inhibition at 1 µM was 33.7%.
Then `CNC[C@@H](O)[C@H](c1ccccc1)N1CCN(C)c2ccccc21` (racemic) [Example 4, (1SR,2RS)-3-(methylamino)-1-(4-methyl-3,4-dihydroquinoxalin-1(2H)-yl)-1-phenylpropan-2-ol hydrochloride], with 46.2%; and `CNC[C@@H](O)[C@H](c1ccccc1)N1CCN(CC(F)(F)F)c2ccccc21` (racemic) [Example 5, (1SR,2RS)-3-(methylamino)-1-phenyl-1-[4-(2,2,2-trifluoroethyl)-3,4-dihydroquinoxalin-1(2H)-yl]propan-2-ol hydrochloride], with 52.9%.
`CNC[C@@H](O)[C@H](c1ccccc1)N1CCOc2ccc(Cl)cc21` (racemic) [Example 11, (1RS,2SR)-1-(6-chloro-2,3-dihydro-4H-1,4-benzoxazin-4-yl)-3-(methylamino)-1-phenylpropan-2-ol hydrochloride] showed an inhibition at 1 µM of 60.6%.
To `CNC[C@@H](O)[C@H](c1ccccc1)N1CCOc2ccc(C)cc21` (racemic) [Example 12, (1RS,2SR)-3-(methylamino)-1-(6-methyl-2,3-dihydro-4H-1,4-benzoxazin-4-yl)-1-phenylpropan-2-ol hydrochloride] belongs 3.4%; to `CNC[C@@H](O)[C@H](c1ccccc1)N1CCOc2ccc(Cl)cc21` (single isomer, unassigned) [Example 13, hydrochloride], 38.6%.
Take `CNC[C@H](O)[C@@H](c1ccccc1)N1CCOc2ccc(Cl)cc21` (single isomer, unassigned) [Example 14, hydrochloride]: the inhibition at 1 µM was determined as 41.5%.
To `CNC[C@@H](O)[C@H](c1cccc(F)c1)N1C[C@@H](c2ccccc2)Oc2ccccc21` (single isomer, unassigned) [Example 20, hydrochloride] belongs 97.2%.
To `CNC[C@@H](O)[C@H](c1cccc(F)c1)N1C[C@H](c2ccccc2)Oc2ccccc21` (single isomer, unassigned) [Example 21, hydrochloride] belongs 51.7%.
To `CNC[C@@H](O)[C@H](c1cc(F)cc(F)c1)N1CCOc2ccc(Cl)cc21` [Example 8, (1S,2R)-1-(6-chloro-2,3-dihydro-4H-1,4-benzoxazin-4-yl)-1-(3,5-difluorophenyl)-3-(methylamino)propan-2-ol hydrochloride] belongs 12.5%.
In turn, `CNC[C@@H](O)[C@H](c1cccc(F)c1)N1CC(C)Oc2ccccc21` (stereo partly drawn) [Example 9, (1S,2R)-1-(3-fluorophenyl)-3-(methylamino)-1-(2-methyl-2,3-dihydro-4H-1,4-benzoxazin-4-yl)propan-2-ol hydrochloride] yielded an inhibition at 1 µM of 53.9%.
Take `CNC[C@@H](O)[C@H](c1cccc(F)c1)N1CCOc2ccc(Cl)cc21` [Example 15, (1S,2R)-1-(6-chloro-2,3-dihydro-4H-1,4-benzoxazin-4-yl)-1-(3-fluorophenyl)-3-(methylamino)propan-2-ol hydrochloride]: at 1 µM the inhibition was 41.4%.
The compound `CNC[C@@H](O)[C@H](c1cccc(F)c1)N1CC(C)(C)Oc2ccccc21` [Example 16, (1S,2R)-1-(2,2-dimethyl-2,3-dihydro-4H-1,4-benzoxazin-4-yl)-1-(3-fluorophenyl)-3-(methylamino)propan-2-ol hydrochloride] returned an inhibition at 1 µM of 10%.
To `CNC[C@@H](O)[C@H](c1ccccc1)N1CC(C)(C)Oc2ccccc21` [Example 17, (1S,2R)-1-(2,2-dimethyl-2,3-dihydro-4H-1,4-benzoxazin-4-yl)-3-(methylamino)-1-phenylpropan-2-ol hydrochloride] belongs 9.3%.
To `CNC[C@@H](O)[C@H](c1cccc(F)c1)N1CCSc2ccccc21` [Example 18, (1S,2R)-1-(2,3-dihydro-4H-1,4-benzothiazin-4-yl)-1-(3-fluorophenyl)-3-(methylamino)propan-2-ol hydrochloride] belongs 90.4%.
To `CNC[C@@H](O)[C@H](c1cccc(F)c1)N1CC(c2ccccc2)Oc2ccccc21` (stereo partly drawn) [Example 19, (1S,2R)-1-(3-fluorophenyl)-3-(methylamino)-1-(2-phenyl-2,3-dihydro-4H-1,4-benzoxazin-4-yl)propan-2-ol hydrochloride] belongs 95%.
